Values quoted from earlier work in US20110195110A1, “UREA COMPOUNDS USEFUL IN THE TREATMENT OF CANCER” (priority 2005, published 2011).

Tests used:
[1] = tested on: Bcr-Abl E255K mutant; settings: biochemical assay
[2] = tested on: Imatinib-resistant mutations of Bcr-Abl
[3] = tested on: Bcr-Abl kinase; settings: greater potency than Imatinib
[4] = tested on: early phase CML; settings: patients with early phase CML

SMILES | inhibition of the E255K mutant [1] | inhibition of Imatinib-resistant mutations [2] | potency of inhibition of Bcr-Abl kinase activity relative to Imatinib [3] [fold] | response at haematological and cytogenetic levels [4]
Cc1cn(-c2cc(NC(=O)c3ccc(C)c(Nc4nccc(-c5cccnc5)n4)c3)cc(C(F)(F)F)c2)cn1 [AMN-107] | somewhat weak inhibition | inhibit most Imatinib-resistant mutations, except for T3151 | 20 | –
Cc1ccc(NC(=O)c2ccc(CN3CCN(C)CC3)cc2)cc1Nc1nccc(-c2cccnc2)n1 [Imatinib] | – | – | – | greater than 90%
